Measurements taken from patent US6627441B1, “Increasing levels of growth regulator and/or water stress during embryo development” (priority 1998, dated 2003).

Experiments:
[1] = test system: white spruce somatic embryos; test: Effect of ABA concentration and PEG medium water potential on maturation frequency and precocious germination (Example 1); format: cell-based; settings: for mean maturation frequency / precocious germination (appearance of embryos): 6 weeks; for mean maturation frequency: embryos per dish; for total of means (maturation frequency): summed over PEG medium water potentials 230-310
Protocol: For maturation, the ½ LM basal medium was supplemented with 250 mg/L glutamine and 500 mg/L casein hydrolysate and 3% sucrose. Amino acids were filter sterilized and added to cooled media. ABA (Sigma A 2784) stock solutions were prepared by first dissolving ABA in concentrated NaOH. ABA was added after autoclaving. The purity and source of (+)-ABA can influence results. Purer (+)-ABA would be required in lower amounts. Actual levels need to be determined depending on the source of ABA, the components of the culture medium, and species being studied. […] It is also possible to complement the maturation medium by incorporating auxin and/or cytokinin, or plant growth promoters having auxin-like and cytokinin-like activity. Similarly, gibberellin is in principle also a suitable complementary growth promoter, and an empirical approach taking into account such factors as plant species, environment, and so forth should be used to determine the concentration etc. of gibberellin.
For maturation, the solidified culture medium in 9 cm petri dishes was overlaid with a filter paper support to facilitate transfers to fresh media. Onto this was pipetted 0.75 mL of a 20% suspension of precultured cells resuspended in fresh hormone-free preculture medium with 3% sucrose. Cultures were incubated at 25 ° C. in the dark and transferred to fresh medium every two weeks.
Thus, immature white spruce somatic embryos were cultured on medium containing 8, 16, 24, and 32 μM ABA. […] Embryos were transferred to fresh medium of the same composition and were cultured for a total of six weeks. The number of embryos per dish were then counted and the appearance of the embryos was recorded. Results are for three to eight dishes per treatment. A total of 2439 mature embryos were recorded.

[2] = test system: white spruce somatic embryos; test: Effect of water stress and ABA on somatic embryo moisture contents (Example 4); format: cell-based
Protocol: Water potentials were measured for liquid media containing various osmotica at a range of concentrations, which were plotted on a curve. Determinations were made using a vapour pressure osmometer (Wescor). Moisture content determinations were done using methods described previously by Attree et al. (U.S. Pat. No. 5,464,769).
Embryos were cultured on medium containing 3% sucrose and ABA, with additional osmoticum adjusted to vary water potentials, as shown in Table 4.
Embryos were cultured for six weeks and moisture contents determined. Determinations for each treatment were made weekly, with three replicates per treatment. 50 embryos per replicate were used. In some instances, particularly for the control with low osmoticum, insufficient embryos were produced. In these cases, the minimum number of embryos used per replicate was thirty. For weeks 0 to 2, the embryos were too small to be used for moisture content determinations, so whole tissue was used instead.

[3] = treatment 3: PEG medium 290 mmol/kg with constant ABA 20 μM, six weeks

## CC1=CC(=O)CC(C)(C)[C@@]1(O)/C=C/C(C)=C\C(=O)O [ABA, abscisic acid]
[1]; ABA 8 μm, PEG medium water potential 230 (mmol/kg)
  mean maturation frequency: 29.7
[1]; ABA 8 μm, PEG medium water potential 260 (mmol/kg)
  mean maturation frequency: 53.0
[1]; ABA 8 μm, PEG medium water potential 290 (mmol/kg)
  mean maturation frequency: 44.3
[1]; ABA 8 μm, PEG medium water potential 310 (mmol/kg)
  mean maturation frequency: 10.7
[1]; ABA 8 μm, PEG medium water potential 310 (mol/kg)
  precocious germination (appearance of embryos): greening
[1]; ABA 8 μm
  total of means (maturation frequency): 137.7
[1]; ABA 16 μm, PEG medium water potential 230 (mmol/kg)
  mean maturation frequency: 15.6
[1]; ABA 16 μm, PEG medium water potential 260 (mmol/kg)
  mean maturation frequency: 44.0
[1]; ABA 16 μm, PEG medium water potential 260 (mol/kg)
  precocious germination (appearance of embryos): greening
[1]; ABA 16 μm, PEG medium water potential 290 (mmol/kg)
  mean maturation frequency: 20.1
[1]; ABA 16 μm, PEG medium water potential 310 (mmol/kg)
  mean maturation frequency: 0
[1]; ABA 16 μm
  total of means (maturation frequency): 79.7
[1]; ABA 24 μm, PEG medium water potential 230 (mmol/kg)
  mean maturation frequency: 28.0
[1]; ABA 24 μm, PEG medium water potential 230 (mol/kg)
  precocious germination (appearance of embryos): greening
[1]; ABA 24 μm, PEG medium water potential 260 (mmol/kg)
  mean maturation frequency: 22.8
[1]; ABA 24 μm, PEG medium water potential 290 (mmol/kg)
  mean maturation frequency: 28.7
[1]; ABA 24 μm, PEG medium water potential 310 (mmol/kg)
  mean maturation frequency: 1.0
[1]; ABA 24 μm
  total of means (maturation frequency): 80.5
[1]; ABA 32 μm, PEG medium water potential 230 (mmol/kg)
  mean maturation frequency: 28.0
[1]; ABA 32 μm, PEG medium water potential 260 (mmol/kg)
  mean maturation frequency: 22.7
[1]; ABA 32 μm, PEG medium water potential 290 (mmol/kg)
  mean maturation frequency: 8.6
[1]; ABA 32 μm, PEG medium water potential 310 (mmol/kg)
  mean maturation frequency: 2.5
[1]; ABA 32 μm
  total of means (maturation frequency): 61.8
[2]; treatment 1: ABA 20 to 40 μM, 3% sucrose, 190 mmol/kg, after six weeks
  greening of embryos: evidence of greening
[2]; [3]
  greening of embryos: slight greening of cotyledons
  moisture content of somatic embryos: below 55%
[2]; treatment 4: PEG medium 290 mmol/kg with increasing ABA 20, 30, 40 μM, compared with treatment 3
  moisture content of somatic embryos: further slight reductions in moisture content
[2]; treatment 5: ABA to 40 μM, PEG medium to 400 mmol/kg
  greening of embryos: No greening
[2]; treatment 5: ABA to 40 μM, PEG medium to 400 mmol/kg after week two, compared with treatment 4
  moisture content of somatic embryos: a further reduction in moisture content
[2]; treatment 6: ABA to 40 μM, PEG medium to 540 mmol/kg
  greening of embryos: No greening
[2]; treatment 6: PEG water potential raised to 540 mmol/kg with ABA to 40 μM
  yield of mature somatic embryos: 300-350 mature somatic embryos per dish
[2]; treatment 6: PEG water potential raised to 540 mmol/kg with ABA to 40 μM, end of six-week culture
  moisture content of somatic embryos: ~40%
